The nature of data set [1]: oral administration to rats, pharmacokinetics compared with Mirabegron. Type of data set: in vivo. As to conditions: oral administration to Sprague Dawley rats, compared to the parent compound Mirabegron.
Data set [2] in a line: esterase cleavage / half-life in rat blood plasma. Type of data set: in vitro ADME. The following applies: for esterase cleavage: after 1 h. How it is done: (§1) Almost 100 % esterase cleavage was found in rat blood plasma after 1 h, whereas about 70 % of the prodrug was cleaved within 4 hours in human blood plasma.
(§2) The half-life of Benzoyloxy(methoxy)carbonyl-Nphenethyl-Mirabegron in rat blood plasma and in human blood plasma was less than 0.5 h. Almost 100 % esterase cleavage was found in rat blood plasma after 1 h, whereas almost 100 % of the prodrug was cleaved within 4 hours in human blood plasma.

Data set [3] in a line: esterase cleavage / half-life in human blood plasma. Format: in vitro ADME. The following applies: for prodrug cleaved (esterase cleavage): within 4 hours. As for the experimental part: as §1, §2

Regarding `CC(OC(=O)C(C)C)OC(=O)N(CCc1ccc(NC(=O)Cc2csc(N)n2)cc1)C[C@H](O)c1ccccc1` (stereo partly shown) [Enacarbil-Nphenethyl-Mirabegron], in data set [1], the Cmax entry is on record as “higher” and the Tmax result was “earlier”. In data set [2], the half-life result is given as “less than 0.5 h” and the esterase cleavage was approximately 100%. In addition, in data set [3], the half-life result is “less than 2.5 h” and the “prodrug cleaved (esterase cleavage)” value was “about 70%”.

As for `Nc1nc(CC(=O)Nc2ccc(CCN(C[C@H](O)c3ccccc3)C(=O)OCOC(=O)c3ccccc3)cc2)cs1` [Benzoyloxy(methoxy)carbonyl-Nphenethyl-Mirabegron], in data set [2], the half-life result was “less than 0.5 h” and the esterase cleavage was approximately 100%. In addition, in data set [3], the half-life entry is given as “less than 0.5 h” and the “prodrug cleaved (esterase cleavage)” value is listed as approximately 100%.

These data come from patent EP3360866B1, “[…]” (Alfred E. Tiefenbacher (GmbH & Co. KG), priority 2017, dated 2018).
